According to ChEMBL document CHEMBL5579855 (J Med Chem, 2024):
Blank lines part the entries; values can stand above or below the compound they belong to.

What was measured:
PANC-1 [1] = assay: cells; conditions: Homo sapiens, PANC-1, 96 h
Description: Antiproliferative activity against human PANC-1 cells assessed as inhibition of cell growth incubated for 96 hrs by CCK-8 cell viability assay

PANC-1 [2] = assay: Antitumor activity against human PANC-1 cells xenografted in male BALB/c/Nu/Nu assessed as reduction in tumor growth inhibition at 4 mg/kg, ip and measured every 2 days for 21 days; conditions: Mus musculus, PANC-1, 48 h, read-out: TGI
MDA-MB-231 = assay: cells; conditions: Homo sapiens, MDA-MB-231, 96 h
Description: Antiproliferative activity against human MDA-MB-231 cells assessed as inhibition of cell growth incubated for 96 hrs by CCK-8 cell viability assay

[3] = biological target: T1, Histone-lysine N-methyltransferase EHMT2 (Homo sapiens, UniProt Q96KQ7); assay: Inhibition of G9a (unknown origin) by AlphaLISA assay
T1 sequence (Q96KQ7 whole entry): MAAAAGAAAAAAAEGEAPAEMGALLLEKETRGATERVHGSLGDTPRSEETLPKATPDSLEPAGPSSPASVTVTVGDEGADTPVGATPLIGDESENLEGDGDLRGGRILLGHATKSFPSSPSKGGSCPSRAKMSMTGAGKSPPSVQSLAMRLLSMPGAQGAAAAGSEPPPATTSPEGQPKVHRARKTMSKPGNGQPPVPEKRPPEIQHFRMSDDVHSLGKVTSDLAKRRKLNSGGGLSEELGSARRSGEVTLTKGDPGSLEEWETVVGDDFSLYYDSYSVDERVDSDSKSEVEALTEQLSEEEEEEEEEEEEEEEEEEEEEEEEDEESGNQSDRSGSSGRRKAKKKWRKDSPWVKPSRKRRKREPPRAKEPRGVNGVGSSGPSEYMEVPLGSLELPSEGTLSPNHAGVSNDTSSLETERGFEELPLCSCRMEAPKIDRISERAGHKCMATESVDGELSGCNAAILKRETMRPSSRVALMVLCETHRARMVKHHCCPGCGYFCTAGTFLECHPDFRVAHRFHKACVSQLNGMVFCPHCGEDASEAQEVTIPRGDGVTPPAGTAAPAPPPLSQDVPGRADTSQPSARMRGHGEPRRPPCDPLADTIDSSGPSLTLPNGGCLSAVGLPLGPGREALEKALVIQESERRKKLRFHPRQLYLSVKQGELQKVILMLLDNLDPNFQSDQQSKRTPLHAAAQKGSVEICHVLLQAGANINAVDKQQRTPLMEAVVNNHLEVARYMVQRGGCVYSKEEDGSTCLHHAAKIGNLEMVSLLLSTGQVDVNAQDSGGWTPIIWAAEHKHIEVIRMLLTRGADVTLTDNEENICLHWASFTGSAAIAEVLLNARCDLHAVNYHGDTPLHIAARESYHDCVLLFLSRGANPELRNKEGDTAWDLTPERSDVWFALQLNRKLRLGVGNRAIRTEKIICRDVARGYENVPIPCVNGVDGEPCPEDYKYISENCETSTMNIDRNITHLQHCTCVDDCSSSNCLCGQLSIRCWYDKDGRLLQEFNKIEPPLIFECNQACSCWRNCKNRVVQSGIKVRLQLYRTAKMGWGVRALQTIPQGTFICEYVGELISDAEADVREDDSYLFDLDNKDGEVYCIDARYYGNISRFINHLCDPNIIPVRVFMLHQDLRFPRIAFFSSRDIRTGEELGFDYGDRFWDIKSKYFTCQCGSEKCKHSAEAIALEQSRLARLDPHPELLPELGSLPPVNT

[4] = biological target: T2, Histone-lysine N-methyltransferase NSD2 (Homo sapiens, UniProt O96028); assay: Inhibition of NSD2 (unknown origin) by AlphaLISA assay
T2 sequence (O96028 whole entry): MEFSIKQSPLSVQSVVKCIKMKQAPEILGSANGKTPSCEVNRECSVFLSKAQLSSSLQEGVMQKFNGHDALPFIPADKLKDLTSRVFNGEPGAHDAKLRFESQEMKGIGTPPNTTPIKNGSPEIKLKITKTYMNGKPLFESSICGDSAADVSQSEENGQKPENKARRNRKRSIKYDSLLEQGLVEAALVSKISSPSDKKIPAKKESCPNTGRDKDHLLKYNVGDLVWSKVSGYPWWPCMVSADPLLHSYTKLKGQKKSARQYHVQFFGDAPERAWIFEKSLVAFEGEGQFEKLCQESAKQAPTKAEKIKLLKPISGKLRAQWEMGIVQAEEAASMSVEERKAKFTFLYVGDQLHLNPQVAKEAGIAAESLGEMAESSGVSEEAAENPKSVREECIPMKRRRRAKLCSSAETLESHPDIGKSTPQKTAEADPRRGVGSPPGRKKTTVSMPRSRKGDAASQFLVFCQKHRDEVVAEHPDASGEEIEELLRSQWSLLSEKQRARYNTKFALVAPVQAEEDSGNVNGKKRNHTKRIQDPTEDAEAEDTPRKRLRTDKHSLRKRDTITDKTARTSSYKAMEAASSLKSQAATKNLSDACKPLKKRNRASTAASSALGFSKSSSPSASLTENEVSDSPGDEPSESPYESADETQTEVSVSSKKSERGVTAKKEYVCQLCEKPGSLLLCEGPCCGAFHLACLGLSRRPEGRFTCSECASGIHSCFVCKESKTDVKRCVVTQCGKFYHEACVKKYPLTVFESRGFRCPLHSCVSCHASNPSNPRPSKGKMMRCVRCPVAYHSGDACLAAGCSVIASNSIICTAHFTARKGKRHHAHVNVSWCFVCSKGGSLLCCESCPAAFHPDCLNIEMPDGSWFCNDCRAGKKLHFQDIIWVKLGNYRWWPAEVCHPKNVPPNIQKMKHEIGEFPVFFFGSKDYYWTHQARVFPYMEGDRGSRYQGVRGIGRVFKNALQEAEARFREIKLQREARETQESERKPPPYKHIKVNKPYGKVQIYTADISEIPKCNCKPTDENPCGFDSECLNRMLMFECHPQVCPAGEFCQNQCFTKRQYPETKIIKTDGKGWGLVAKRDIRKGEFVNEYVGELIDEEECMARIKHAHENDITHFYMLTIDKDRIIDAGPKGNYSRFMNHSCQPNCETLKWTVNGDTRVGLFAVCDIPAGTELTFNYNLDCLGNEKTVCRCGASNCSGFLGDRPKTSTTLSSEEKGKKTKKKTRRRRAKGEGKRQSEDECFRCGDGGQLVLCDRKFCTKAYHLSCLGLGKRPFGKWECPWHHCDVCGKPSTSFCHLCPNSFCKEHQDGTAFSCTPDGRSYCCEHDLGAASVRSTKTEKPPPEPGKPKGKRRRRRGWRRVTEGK

[5] = AUC (0 to last) in mouse at 4 mg/kg, ip; format: ADME, organism-based; conditions: in vivo
[6] = biological target: Histone-lysine N-methyltransferase 2B (Homo sapiens, UniProt Q9UMN6); assay: Inhibition of MLL4 (unknown origin)
[7] = biological target: Histone-lysine N-methyltransferase EZH2 (Homo sapiens, UniProt Q15910); assay: Inhibition of EZH2 (unknown origin)
[8] = biological target: T3, Histone-lysine N-methyltransferase EHMT1 (Homo sapiens, UniProt Q9H9B1); assay: Inhibition of GLP (unknown origin)
T3 sequence (Q9H9B1 whole entry): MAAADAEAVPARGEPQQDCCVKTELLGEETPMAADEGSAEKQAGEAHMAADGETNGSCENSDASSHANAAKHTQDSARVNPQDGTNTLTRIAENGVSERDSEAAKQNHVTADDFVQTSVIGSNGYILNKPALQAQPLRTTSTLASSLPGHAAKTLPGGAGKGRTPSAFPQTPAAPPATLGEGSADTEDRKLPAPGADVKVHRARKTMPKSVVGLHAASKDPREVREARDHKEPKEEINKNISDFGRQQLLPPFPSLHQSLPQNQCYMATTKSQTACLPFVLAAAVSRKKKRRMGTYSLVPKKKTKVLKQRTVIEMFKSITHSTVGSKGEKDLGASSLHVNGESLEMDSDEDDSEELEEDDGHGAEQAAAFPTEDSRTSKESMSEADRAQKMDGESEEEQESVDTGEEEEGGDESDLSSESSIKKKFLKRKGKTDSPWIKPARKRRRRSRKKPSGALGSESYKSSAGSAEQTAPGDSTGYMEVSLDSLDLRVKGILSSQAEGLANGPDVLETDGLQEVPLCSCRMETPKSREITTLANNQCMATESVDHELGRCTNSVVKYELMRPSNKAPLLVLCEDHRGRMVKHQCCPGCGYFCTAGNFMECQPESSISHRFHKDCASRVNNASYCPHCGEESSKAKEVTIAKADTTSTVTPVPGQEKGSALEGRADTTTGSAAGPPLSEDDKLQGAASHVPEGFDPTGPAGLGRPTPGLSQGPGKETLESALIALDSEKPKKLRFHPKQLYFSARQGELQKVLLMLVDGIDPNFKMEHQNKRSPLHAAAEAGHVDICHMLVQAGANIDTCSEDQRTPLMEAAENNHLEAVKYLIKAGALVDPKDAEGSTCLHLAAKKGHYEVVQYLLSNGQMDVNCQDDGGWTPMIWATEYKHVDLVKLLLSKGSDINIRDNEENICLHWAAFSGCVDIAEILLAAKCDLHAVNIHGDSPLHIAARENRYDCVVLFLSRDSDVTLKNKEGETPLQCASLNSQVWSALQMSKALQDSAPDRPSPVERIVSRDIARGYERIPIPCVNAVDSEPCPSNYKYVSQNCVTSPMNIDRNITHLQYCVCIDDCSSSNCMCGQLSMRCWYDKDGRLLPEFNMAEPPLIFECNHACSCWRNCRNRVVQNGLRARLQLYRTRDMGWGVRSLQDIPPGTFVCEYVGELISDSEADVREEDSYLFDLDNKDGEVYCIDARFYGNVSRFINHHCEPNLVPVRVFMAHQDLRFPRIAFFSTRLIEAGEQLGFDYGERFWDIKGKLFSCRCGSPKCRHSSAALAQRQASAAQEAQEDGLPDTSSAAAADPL

[9] = Cmax in mouse at 4 mg/kg, ip; format: ADME, organism-based; conditions: in vivo
[10] = Half life in mouse at 4 mg/kg, ip; format: ADME, organism-based; conditions: in vivo
[11] = biological target: Protein arginine N-methyltransferase 1 (Homo sapiens, UniProt Q99873); assay: Inhibition of PRMT1 (unknown origin)
[12] = MRT (0 to t) in mouse at 4 mg/kg, ip; format: ADME, organism-based; conditions: in vivo
[13] = biological target: Protein arginine N-methyltransferase 5 (Homo sapiens, UniProt O14744); assay: Inhibition of PRMT5 (unknown origin)
[14] = biological target: T4, Histone-arginine methyltransferase CARM1 (Homo sapiens, UniProt Q86X55); assay: Inhibition of PRMT4 (unknown origin)
T4 sequence (Q86X55 whole entry): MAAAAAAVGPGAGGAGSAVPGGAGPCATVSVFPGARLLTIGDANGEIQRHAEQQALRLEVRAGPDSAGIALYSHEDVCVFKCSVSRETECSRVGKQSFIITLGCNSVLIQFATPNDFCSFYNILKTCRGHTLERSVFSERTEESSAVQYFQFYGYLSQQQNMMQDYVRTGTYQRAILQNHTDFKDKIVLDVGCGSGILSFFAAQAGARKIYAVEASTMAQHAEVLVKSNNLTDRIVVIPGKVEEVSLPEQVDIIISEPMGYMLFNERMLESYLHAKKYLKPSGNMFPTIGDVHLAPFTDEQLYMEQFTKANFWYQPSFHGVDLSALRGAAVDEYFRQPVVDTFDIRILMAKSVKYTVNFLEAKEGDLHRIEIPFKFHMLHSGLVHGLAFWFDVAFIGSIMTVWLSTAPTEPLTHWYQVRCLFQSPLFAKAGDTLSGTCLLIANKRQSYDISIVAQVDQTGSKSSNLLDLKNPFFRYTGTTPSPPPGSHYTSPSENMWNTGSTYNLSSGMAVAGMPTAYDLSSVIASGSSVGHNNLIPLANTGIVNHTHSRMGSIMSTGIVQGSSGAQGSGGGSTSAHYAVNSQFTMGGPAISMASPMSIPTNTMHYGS

[15] = Toxicity in male BALB/c/Nu/Nu mouse xenografted with human PANC-1 cells assessed as change in body weight administered as ip dose and measured every 2 days for 21 days; format: organism-based; conditions: in vivo, 504 h, time 21 day
[16] = AUC (0 to infinity) in mouse at 4 mg/kg, ip; format: ADME, organism-based; conditions: in vivo
[17] = biological target: Histone-lysine N-methyltransferase 2A (Homo sapiens, UniProt Q03164); assay: Inhibition of MLL1 (unknown origin)
[18] = Toxicity in male BALB/c/Nu/Nu mouse xenografted with human PANC-1 cells assessed as drug tolerance administered as ip dose and measured every 2 days for 21 days; format: organism-based; conditions: in vivo, 504 h, time 21 day
[19] = biological target: DNA (cytosine-5)-methyltransferase 1 (Homo sapiens, UniProt P26358); assay: Inhibition of DNMT1 (unknown origin)
Sequence of DNA (cytosine-5)-methyltransferase 1 (P26358 whole entry): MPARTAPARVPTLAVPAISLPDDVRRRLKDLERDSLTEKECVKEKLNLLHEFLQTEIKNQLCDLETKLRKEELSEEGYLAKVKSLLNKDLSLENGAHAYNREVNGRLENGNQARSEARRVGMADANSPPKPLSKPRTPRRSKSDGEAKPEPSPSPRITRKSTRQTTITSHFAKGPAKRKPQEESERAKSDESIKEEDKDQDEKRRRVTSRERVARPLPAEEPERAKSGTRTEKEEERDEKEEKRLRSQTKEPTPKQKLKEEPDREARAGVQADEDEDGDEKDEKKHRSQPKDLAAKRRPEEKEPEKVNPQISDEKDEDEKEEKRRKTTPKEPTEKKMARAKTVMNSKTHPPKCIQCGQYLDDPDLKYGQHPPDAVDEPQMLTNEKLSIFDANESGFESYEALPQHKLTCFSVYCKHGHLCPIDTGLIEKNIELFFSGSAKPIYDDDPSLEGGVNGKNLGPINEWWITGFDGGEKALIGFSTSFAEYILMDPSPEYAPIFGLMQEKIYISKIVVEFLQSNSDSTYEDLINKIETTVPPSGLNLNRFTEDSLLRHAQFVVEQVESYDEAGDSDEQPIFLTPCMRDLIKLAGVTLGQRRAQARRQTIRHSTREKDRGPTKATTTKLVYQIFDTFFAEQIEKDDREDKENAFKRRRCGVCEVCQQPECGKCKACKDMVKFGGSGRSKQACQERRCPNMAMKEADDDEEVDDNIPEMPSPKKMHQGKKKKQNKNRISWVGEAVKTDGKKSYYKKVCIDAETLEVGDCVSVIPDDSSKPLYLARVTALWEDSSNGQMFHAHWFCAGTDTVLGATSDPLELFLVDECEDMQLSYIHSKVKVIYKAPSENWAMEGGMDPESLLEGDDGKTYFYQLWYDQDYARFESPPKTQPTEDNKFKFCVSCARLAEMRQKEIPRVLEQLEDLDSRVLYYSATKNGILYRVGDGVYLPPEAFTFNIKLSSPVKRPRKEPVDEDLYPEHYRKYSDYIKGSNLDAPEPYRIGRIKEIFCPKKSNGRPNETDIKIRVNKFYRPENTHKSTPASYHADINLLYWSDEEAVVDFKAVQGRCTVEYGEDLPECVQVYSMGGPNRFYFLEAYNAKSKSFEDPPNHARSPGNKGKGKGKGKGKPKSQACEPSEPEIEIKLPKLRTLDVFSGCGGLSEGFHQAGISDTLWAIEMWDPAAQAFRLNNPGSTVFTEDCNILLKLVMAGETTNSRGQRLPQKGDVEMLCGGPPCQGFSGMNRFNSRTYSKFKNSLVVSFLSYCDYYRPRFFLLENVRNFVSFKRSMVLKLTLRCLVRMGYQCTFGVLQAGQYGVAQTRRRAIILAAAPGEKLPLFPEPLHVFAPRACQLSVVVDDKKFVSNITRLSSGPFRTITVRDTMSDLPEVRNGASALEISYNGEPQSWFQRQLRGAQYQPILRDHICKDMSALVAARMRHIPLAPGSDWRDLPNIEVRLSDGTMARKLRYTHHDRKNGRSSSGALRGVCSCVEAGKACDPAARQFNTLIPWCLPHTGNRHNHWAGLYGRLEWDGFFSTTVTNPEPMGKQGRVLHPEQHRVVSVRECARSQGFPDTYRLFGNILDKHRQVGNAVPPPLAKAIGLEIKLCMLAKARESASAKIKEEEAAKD

Sequence of Protein arginine N-methyltransferase 5 (O14744 whole entry): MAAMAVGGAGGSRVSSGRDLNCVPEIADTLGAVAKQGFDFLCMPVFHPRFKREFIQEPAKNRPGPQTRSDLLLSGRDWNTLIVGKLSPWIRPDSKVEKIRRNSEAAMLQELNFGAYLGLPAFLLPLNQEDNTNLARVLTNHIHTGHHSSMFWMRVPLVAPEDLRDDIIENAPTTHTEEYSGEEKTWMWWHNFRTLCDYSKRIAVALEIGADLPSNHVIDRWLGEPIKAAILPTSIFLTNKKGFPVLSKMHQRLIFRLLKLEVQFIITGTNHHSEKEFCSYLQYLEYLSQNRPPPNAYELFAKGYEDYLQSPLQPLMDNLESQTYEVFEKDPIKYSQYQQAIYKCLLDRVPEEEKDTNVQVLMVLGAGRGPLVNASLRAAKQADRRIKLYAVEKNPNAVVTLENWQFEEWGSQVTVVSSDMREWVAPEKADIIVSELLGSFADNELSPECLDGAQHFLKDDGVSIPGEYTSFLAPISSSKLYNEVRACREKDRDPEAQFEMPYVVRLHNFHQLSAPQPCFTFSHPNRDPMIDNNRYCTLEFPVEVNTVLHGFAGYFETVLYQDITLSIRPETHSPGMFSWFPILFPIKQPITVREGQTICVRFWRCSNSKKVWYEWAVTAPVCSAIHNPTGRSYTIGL
Sequence of Protein arginine N-methyltransferase 1 (Q99873 whole entry): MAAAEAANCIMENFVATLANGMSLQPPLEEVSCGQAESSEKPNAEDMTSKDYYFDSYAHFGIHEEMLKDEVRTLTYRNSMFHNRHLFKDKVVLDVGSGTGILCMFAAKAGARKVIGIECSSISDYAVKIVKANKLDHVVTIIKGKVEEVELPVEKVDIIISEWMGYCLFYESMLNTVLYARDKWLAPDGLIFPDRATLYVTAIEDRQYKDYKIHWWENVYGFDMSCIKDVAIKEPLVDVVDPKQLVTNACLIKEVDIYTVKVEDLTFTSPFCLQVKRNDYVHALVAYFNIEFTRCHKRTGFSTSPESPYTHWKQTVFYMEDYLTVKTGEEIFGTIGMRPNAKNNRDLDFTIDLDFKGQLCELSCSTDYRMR
Sequence of Histone-lysine N-methyltransferase EZH2 (Q15910 whole entry): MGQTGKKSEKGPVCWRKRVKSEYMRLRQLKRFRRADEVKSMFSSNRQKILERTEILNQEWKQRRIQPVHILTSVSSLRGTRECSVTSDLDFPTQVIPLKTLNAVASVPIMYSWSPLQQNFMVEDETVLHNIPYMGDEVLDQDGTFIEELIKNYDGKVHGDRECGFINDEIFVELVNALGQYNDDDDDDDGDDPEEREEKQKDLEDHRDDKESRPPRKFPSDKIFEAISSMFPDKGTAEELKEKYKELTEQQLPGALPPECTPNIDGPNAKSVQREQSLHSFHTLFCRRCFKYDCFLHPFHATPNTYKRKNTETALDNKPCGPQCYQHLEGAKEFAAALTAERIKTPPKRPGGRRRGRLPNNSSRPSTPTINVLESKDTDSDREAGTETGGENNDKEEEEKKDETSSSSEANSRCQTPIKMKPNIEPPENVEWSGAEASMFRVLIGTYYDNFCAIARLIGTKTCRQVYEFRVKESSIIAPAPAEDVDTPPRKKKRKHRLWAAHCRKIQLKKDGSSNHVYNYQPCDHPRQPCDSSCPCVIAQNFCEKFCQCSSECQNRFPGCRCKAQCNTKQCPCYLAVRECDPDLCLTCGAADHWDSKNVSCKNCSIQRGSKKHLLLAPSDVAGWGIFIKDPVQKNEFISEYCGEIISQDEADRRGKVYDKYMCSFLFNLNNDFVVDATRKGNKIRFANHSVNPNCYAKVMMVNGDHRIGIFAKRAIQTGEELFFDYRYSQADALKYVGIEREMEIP

- IC50 (PANC-1 [1]): 5.74 µM
- IC50 (MDA-MB-231): 3.31 µM
SMILES: COc1cc2c(NC3CCN(C(C)C)CC3)nc(N3CCC(F)(F)CC3)nc2cc1OCCCN1CCCC1
- inhibition in vivo at 4 mg/kg (PANC-1 [2]): 7.34%

- IC50 [3]: 0.0085 µM
SMILES: C=CC(=O)N(C)c1nc(NC2CCN(C(C)C)CC2)c2cc(OC)c(OCCCN3CCCC3)cc2n1

- IC50 [3]: < 0.1 µM
SMILES: CNc1nc2cc(OCCCN3CCCC3)c(OC)cc2n1C(C)C

- IC50 [4]: 2.65 µM
- IC50 [3]: > 10 µM
SMILES: COc1cc2nc(C#N)nc(NC3CCN(Cc4ccccc4)CC3)c2cc1OC

- AUClast [5]: 1987 ng·h/mL
- IC50 [6]: > 10 µM
- IC50 [7]: > 10 µM
- IC50 [8]: 0.41 µM
- Cmax [9]: 732 ng/mL
- half-life [10]: 16 h
- IC50 [11]: 6.44 µM
- MRT last [12]: 20.3 h
- IC50 [13]: > 10 µM
- IC50 [14]: > 10 µM
- AUC [16]: 2960 ng·h/mL
- IC50 [17]: > 10 µM
- IC50 [19]: > 10 µM
SMILES: COc1cc2c(NC3CCN(C(C)C)CC3)nc(C#N)nc2cc1OCCCN1CCCC1
- Activity [15]: Non-Toxic
- Activity [18]: Non-Toxic

- IC50 [4]: < 0.1 µM
SMILES: COc1cc(F)c(-c2cc(Cn3cnc4c(N)ncnc43)c(N3CCC[C@](N)([C@H](O)CF)C3)cn2)cc1F
